Experiment [1] relates to INS-1 cells. The experiment in a line: Glucose-stimulated insulin secretion (ELISA) in Tm-treated INS-1 cells. Particulars: Tm 0.1 μg/mL, 24 h, 20 mM glucose. In kind it is cell-based, rat. Here is the method:
(A-D) INS-1 cells were treated with or without Tm (0.1 m/mL) in the presence of 13d at indicated concentrations or DMSO for 24 h. The mRNA levels of INS1 (A), INS2 (B), PDX1 (C), and MafA (D), were analyzed by qRT-PCR. Relative mRNA levels were normalized against the housekeeping gene Cyclophilin A using the comparative CT method. The results are the means of 3 replicate wells and are representative of 3 independent experiments. * P<0.05 and ** P<0.01 compared with Tm treatment alone. Bars indicate SD. (E) Insulin secretion by INS-1 cells incubated with 1.7 mM and 20 mM glucose in the presence or absence of Tm (0.1 μg/mL) and 13d. Secreted insulin was measured by ELISA after 24 h treatment. * P<0.05. The amount of insulin secreted in response to 1.7 mM glucose in the absence of Tm was set to 1.0 and was normalized with total protein concentration.
INS-1 or primary human islet cells were plated in 96-well plates. The second day, Tm and test compound were added and maintained for 24 h (INS-1) or 48 h (human islets). […] The secreted insulin was measured with insulin ELISA kits (for mouse insulin from Millipore and for human insulin from LifeTech). Cells were lysed with RIPA buffer (50 mM Tris HCl pH 7.4, 1% NP-40, 0.25% sodium deoxycholate, 150 mM NaCl), and total cellular protein was determined with a Bradford protein assay. […]

Experiment [2] relates to STZ-induced diabetic mouse model. The experiment can be described thus: Streptozotocin (STZ)-induced diabetic mouse model. In kind it is in vivo, C57BL/6 mice. As to the method:
(A) Fasting blood glucose levels were measured in STZ-injected mice treated with vehicle control (n=6) or 13d (n=7). C57BL/6J mice were injected intraperitoneally once daily for 5 days with STZ (50 mg/kg body weight) and with either vehicle (n=6 mice) or 13d (5 mg/kg body weight; n=7 mice). Injections of vehicle or 13d alone were then continued for 2 more weeks. (B) Glucose tolerance test. Blood glucose levels measured at indicated time points after intraperitoneal injection of glucose (2 g/kg body weight). (C) Pancreases were sectioned and slides were stained with anti-insulin antibody (green, β-cell marker), anti-glucagon antibody (red, α-cell marker), and DAPI (blue). Slides were imaged with an Olympus FV1000 confocal microscope. Representative images are shown in (C). (D) Quantification of total islet area per section and β-cell number per islet. Total area of all islets per section calculated for a total of six sections using insulin-positive cells to demarcate islets. Data are the means±SEM of six sections from three mice. *p<0.05 **p<0.01, and ***p<0.001 by Student's t-test.
We next evaluated the in vivo efficacy of 13d using a streptozotocin (STZ)-induced diabetic mouse model. STZ induces ER stress in β-cells in addition to the increase in reactive oxygen species (ROS) production and DNA alkylation. C57BL/6 mice injected intraperitoneally with low dose STZ (50 mg/kg) once daily for 5 consecutive days develop diabetes; blood glucose levels increased gradually within a week of STZ treatment.
All procedures involving animals were performed in accordance with the protocol approved by the University of Oklahoma Health Science Center Institutional Animal Care and Use Committee (IACUC). C57BL/6 mice were obtained from The Jackson Laboratory (Bar Harbor, Me.) and maintained on a 12 h light (6:00 AM-6:00 PM)-12 h dark (6:00 PM-6:00 AM) cycle at an ambient temperature of 21° C. Mice were given free access to water and food. All experiments were performed with age-matched male mice. Compounds were dosed during light cycle. For streptozotocin (STZ)-induced diabetic model, ten-week-old C57BL/6 mice were injected intraperitoneally (i.p.) once daily for five days with STZ (dissolved in Na-Citrate Buffer; 50 mg/kg) and either 13d (5 mg/kg body weight; 2 mg/ml in 10% DMSO in saline buffer; n=7 mice) or vehicle (n=6 mice). Injections of vehicle or 13d alone were then continued for 2 more weeks. Every third day, animals were fasted for 5 h and blood was obtained by tail snip. Blood glucose levels were measured using a glucometer (Nova Statstrip Xpress; Data Science International, St. Paul, Minn.). At the end of the treatment period, mice were sacrificed and the pancreases were removed, fixed in formalin, and paraffin-embedded. Tissue blocks were serially sectioned at intervals of 100 μm and 6 sections were stained with an anti-insulin antibody (A0564, 1:500 dilution; Dako), anti-glucagon antibody (G2654, 1:500 dilution; Sigma), and DAPI (0.5 μg/ml). Insulin-positive cells were used to demarcate islets, and the total islet area was measured with an Olympus FV1000 confocal microscopy and quantified with Image-J histogram software.

Experiment [3] deals with INS-1 cells. The experiment in a line: Live-cell phase-contrast imaging of Tm-treated INS-1 cells. In kind it is cell-based, rat. Further details: dose or concentration left out as unconfirmed. As to conditions: 48 h, FIG. 3B. As to the method: (A) INS-1 cells were treated with or without Tm (0.1 m/mL) in the presence of 13d at indicated concentrations or DMSO for 24 h. Cleaved caspase-3 and PARP were determined by Western blotting. α-Tubulin was used as a loading control. The data shown are representative of 3 independent experiments. (B) INS-1 cells were treated with or without Tm (0.1 m/mL) in the presence of 13d (0.111M) or DMSO for 48 h, and live-cell phase-contrast images were acquired (magnification 10×). The images shown are representative of 3 independent experiments. (C) TUNEL staining of INS-1 cells. INS-1 cells were treated with 0.111 g/mL of Tm with or without compound 13d for 24 h before TUNEL staining. DAPI was used as a nuclear marker. Magnification is 20×. The images shown are representative of 3 independent experiments. (D) Quantification of TUNEL staining from 20 fields of images. ** P<0.01 compared with Tm treatment alone.

For `O=C(NCc1ccc(C(F)(F)F)cc1)c1cccc(CN2CCCCC2)c1` [Compound 13d, N-(4-trifluoromethylphenmethyl)-3-(N-piperidinyl)methyl benzamide], the “glucose-stimulated insulin secretion (GSIS) in Tm-treated cells” value in the experiment on INS-1 cells [1] is listed as “significantly rescued”. For the same compound, the “total pancreatic islet β-cell area compared to vehicle-treated mice” value in experiment [2] (STZ mice, 5 mg/kg) is “more than double”. Also, in experiment [2] (STZ mice, 5 mg/kg i.p. once daily, after 3 weeks of treatment), the “fasting blood glucose level” value was determined as 314 mg/dL. Moreover, the “total pancreatic islet β-cell area” value in experiment [2] (STZ mice, 5 mg/kg, pancreatic sections at end of treatment) was 67.4±5.9%. Moreover, the “average number of α-cells” value in experiment [2] (STZ mice, 5 mg/kg, vehicle vs 13d groups) is on record as “no obvious effect”. For the same compound, the “intraperitoneal glucose tolerance test, blood glucose vs vehicle-treated STZ group” value in experiment [2] (overnight fasted STZ mice, 5 mg/kg, glucose 2 g/kg i.p.) was “lower blood glucose levels at 15, and 30 min”. Moreover, the “viable INS-1 cells with Tm co-treatment vs Tm alone” value in the experiment with INS-1 cells [3] is “significantly more viable INS-1 cells”.

The values are drawn from patent publication US11203582B2, “Benzamide derivatives for inhibiting endoplasmic reticulum (ER) stress” (The Board of Regents of the University of Oklahoma, priority 2017, dated 2021).
